The values that follow come from patent US20230065740A1, “CYCLIN-DEPENDENT KINASE INHIBITORS” (SPV THERAPEUTICS INC., priority 2018, published 2023).

For one assay, the target named is CDK4-CYCLIND1 (Homo sapiens, UniProt P11802). As to the kind of experiment: Microfluidic LabChip kinase inhibition assay, CDK4-CyclinD1. The settings on record: 200 μM ATP.
The target of another assay is T1, CDK6-CYCLIND3 (Homo sapiens, UniProt Q00534).
T1 construct: purchased Carna
As to the kind of experiment: Microfluidic LabChip kinase inhibition assay, CDK6-CyclinD3. It is filed as biochemical. The following applies: 300 μM ATP.

Setting [1] is: CDK4 CyclinD1 IC50 (μM), Table 3a, second value in parentheses on the next line.
Where [2] appears, read: CDK4 CyclinD1 IC50 (μM), Table 3b, second value in parentheses on the next line.
Where [3] appears, read: Table 3a, read-out: CDK6 CyclinD3 IC50.
Setting [4] is: Table 3b, read-out: CDK6 CyclinD3 IC50.
[5] abbreviates: CDK4 IC50 (μM), Table 2, 1 nM enzyme.
Setting [6] is: Table 2, 2 nM enzyme, read-out: CDK6 IC50.

The structures appear in SMILES notation. Like-named read-outs stand apart in the source and are kept apart here.

Sequence of CDK4-CYCLIND1 (P11802 whole entry): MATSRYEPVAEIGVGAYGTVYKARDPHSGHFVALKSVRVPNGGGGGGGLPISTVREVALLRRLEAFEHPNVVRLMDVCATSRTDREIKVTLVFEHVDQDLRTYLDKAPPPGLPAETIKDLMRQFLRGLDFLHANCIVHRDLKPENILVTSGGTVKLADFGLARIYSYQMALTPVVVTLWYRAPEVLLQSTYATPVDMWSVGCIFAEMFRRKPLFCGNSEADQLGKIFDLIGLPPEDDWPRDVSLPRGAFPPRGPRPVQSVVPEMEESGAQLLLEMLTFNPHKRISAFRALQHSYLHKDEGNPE
Sequence of CDK4-CYCLIND1 (P24385 whole entry partner): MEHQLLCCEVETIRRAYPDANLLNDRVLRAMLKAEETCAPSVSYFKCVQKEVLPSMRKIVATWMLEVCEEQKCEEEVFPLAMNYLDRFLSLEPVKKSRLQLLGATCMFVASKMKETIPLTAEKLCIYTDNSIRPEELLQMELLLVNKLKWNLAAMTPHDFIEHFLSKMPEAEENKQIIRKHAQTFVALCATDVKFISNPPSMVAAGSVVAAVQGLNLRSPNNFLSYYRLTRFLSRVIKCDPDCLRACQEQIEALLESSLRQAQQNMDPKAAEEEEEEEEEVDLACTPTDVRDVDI
T1 sequence (Q00534 whole entry): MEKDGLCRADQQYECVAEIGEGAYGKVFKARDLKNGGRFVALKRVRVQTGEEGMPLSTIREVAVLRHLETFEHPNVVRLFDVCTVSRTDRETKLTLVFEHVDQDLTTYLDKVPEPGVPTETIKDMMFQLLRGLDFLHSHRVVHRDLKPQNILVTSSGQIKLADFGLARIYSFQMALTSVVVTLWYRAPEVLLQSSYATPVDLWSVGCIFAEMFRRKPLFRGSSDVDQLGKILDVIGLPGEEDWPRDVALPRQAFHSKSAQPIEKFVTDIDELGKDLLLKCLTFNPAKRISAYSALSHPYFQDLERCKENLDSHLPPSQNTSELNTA
T1 sequence (P30281 whole entry partner): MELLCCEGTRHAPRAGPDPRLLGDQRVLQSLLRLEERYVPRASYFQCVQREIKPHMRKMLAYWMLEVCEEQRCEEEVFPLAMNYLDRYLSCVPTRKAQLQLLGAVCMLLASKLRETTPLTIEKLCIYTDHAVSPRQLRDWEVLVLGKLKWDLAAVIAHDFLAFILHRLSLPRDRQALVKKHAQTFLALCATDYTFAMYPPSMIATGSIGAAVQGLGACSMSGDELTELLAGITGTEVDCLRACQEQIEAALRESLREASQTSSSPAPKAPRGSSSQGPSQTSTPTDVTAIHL

For the compound `O=C1NCCC12Cc1cnc(Nc3ccc(N4CCNCC4)c(F)c3)nc1N2C1CCCC1` (single isomer, unassigned) [Compound C203, 7′-cyclopentyl-2′-((3-fluoro-4-(piperazin-1-yl)phenyl)amino)-5′,7′-dihydrospiro[pyrrolidine-3,6′-pyrrolo[2,3-d]pyrimidin]-2-one], the IC50 on CDK4-CYCLIND1 (setting [1]) was determined as 0.0245 µM; on CDK4-CYCLIND1 (setting [2]) it was 0.0245 µM; on CDK6-CYCLIND3 (setting [3]) it was 0.104 µM; on CDK6-CYCLIND3 (setting [4]) it was 0.104 µM.
For `O=C1NCCC12Cc1cnc(Nc3ccc(N4CCNCC4)c(F)c3)nc1N2C1CCCC1` (single isomer, unassigned) [Compound C204, 7′-cyclopentyl-2′-((3-fluoro-4-(piperazin-1-yl)phenyl)amino)-5′,7′-dihydrospiro[pyrrolidine-3,6′-pyrrolo[2,3-d]pyrimidin]-2-one], the IC50 on CDK4-CYCLIND1 (setting [1]) is 2.03 µM; at CDK4-CYCLIND1 (setting [2]) it was 2.03 µM; at CDK6-CYCLIND3 (setting [3]), 11.8 µM; at CDK6-CYCLIND3 (setting [4]), 11.8 µM.
Take `CN1CCN(c2ccc(Nc3ncc4c(n3)N(C3CCCC3)C3(CCNC3=O)C4)cc2F)CC1` (single isomer, unassigned) [Compound C205, 7′-cyclopentyl-2′-((3-fluoro-4-(4-methylpiperazin-1-yl)phenyl)amino)-5′,7′-dihydrospiro[pyrrolidine-3,6′-pyrrolo[2,3-d]pyrimidin]-2-one]: the 50% inhibitory concentration (IC50) was 0.0413 µM at CDK4-CYCLIND1 (setting [1]), 0.0413 µM at CDK4-CYCLIND1 (setting [2]), 0.179 µM on CDK6-CYCLIND3 (setting [3]) and 0.179 µM at CDK6-CYCLIND3 (setting [4]).
As for `CN1CCN(c2ccc(Nc3ncc4c(n3)N(C3CCCC3)C3(CCNC3=O)C4)cc2F)CC1` (single isomer, unassigned) [Compound C206, 7′-cyclopentyl-2′-((3-fluoro-4-(4-methylpiperazin-1-yl)phenyl)amino)-5′,7′-dihydrospiro[pyrrolidine-3,6′-pyrrolo[2,3-d]pyrimidin]-2-one], the half-maximal inhibitory concentration (IC50) on CDK4-CYCLIND1 (setting [1]) amounted to 5.14 µM; at CDK4-CYCLIND1 (setting [2]), 5.14 µM; on CDK6-CYCLIND3 (setting [3]) it was 15.8 µM; at CDK6-CYCLIND3 (setting [4]), 15.8 µM.
`CN1CCN(c2ccc(Nc3ncc4c(n3)N(C3CCCC3)C3(CCN(C)C3=O)C4)cc2)CC1` (stereo not drawn) [Compound C1, 7′-cyclopentyl-1-methyl-2′-((4-(4-methylpiperazin-1-yl)phenyl)amino)-5′,7′-dihydrospiro[pyrrolidine-3,6′-pyrrolo[2,3-d]pyrimidin]-2-one]: the figures for the concentration for half-maximal inhibition (IC50) against CDK4-CYCLIND1 (setting [5]) and at CDK6-CYCLIND3 (setting [6]) were 4.74 µM and 19.1 µM, respectively.
In the case of `CN1CCC2(Cc3cnc(Nc4ccc(N5CCNCC5)cc4)nc3N2C2CCCC2)C1=O` (stereo not drawn) [Compound C2, 7′-cyclopentyl-1-methyl-2′-((4-(piperazin-1-yl)phenyl)amino)-5′,7′-dihydrospiro[pyrrolidine-3,6′-pyrrolo[2,3-d]pyrimidin]-2-one], the IC50 was determined as 5.16 µM at CDK4-CYCLIND1 (setting [5]) and 23.8 µM on CDK6-CYCLIND3 (setting [6]).
For the compound `CC(C)N1CCN(c2ccc(Nc3ncc4c(n3)N(C3CCCC3)C3(CCN(C)C3=O)C4)nc2)CC1` (stereo not drawn) [Compound C3, 7′-cyclopentyl-2′-((5-(4-isopropylpiperazin-1-yl)pyridin-2-yl)amino)-1-methyl-5′,7′-dihydrospiro[pyrrolidine-3,6′-pyrrolo[2,3-d]pyrimidin]-2-one], the IC50 at CDK4-CYCLIND1 (setting [5]) and at CDK6-CYCLIND3 (setting [6]) was over 30 µM in each case.
Turning to `CN(C)CCOc1ccc(Nc2ncc3c(n2)N(C2CCCC2)C2(CCN(C)C2=O)C3)nc1` (stereo not drawn) [Compound C4, 7′-cyclopentyl-2′-((5-(2-(dimethylamino)ethoxy)pyridin-2-yl)amino)-1-methyl-5′,7′-dihydrospiro[pyrrolidine-3,6′-pyrrolo[2,3-d]pyrimidin]-2-one], the concentration for half-maximal inhibition (IC50) against CDK4-CYCLIND1 (setting [5]) and at CDK6-CYCLIND3 (setting [6]) was over 30 µM in each case.
For the compound `CN1CCC2(Cc3cnc(Nc4ccc(OCCN5CCCC5)cn4)nc3N2C2CCCC2)C1=O` (stereo not drawn) [Compound C5, 7′-cyclopentyl-1-methyl-2′-((5-(2-(pyrrolidin-1-yl)ethoxy)pyridin-2-yl)amino)-5′,7′-dihydrospiro[pyrrolidine-3,6′-pyrrolo[2,3-d]pyrimidin]-2-one], the concentration for half-maximal inhibition (IC50) against CDK4-CYCLIND1 (setting [5]) and at CDK6-CYCLIND3 (setting [6]) was over 30 µM each time.
As for `CN1CCC2(Cc3cnc(Nc4ccc(OCCN5CCCCC5)cn4)nc3N2C2CCCC2)C1=O` (stereo not drawn) [Compound C6, 7′-cyclopentyl 1-methyl-2′-((5-(2-(piperidin-1-yl)ethoxy)pyridin-2-yl)amino)-5′,7′-dihydrospiro[pyrrolidine-3,6′-pyrrolo[2,3-d]pyrimidin]-2-one], the IC50 at CDK4-CYCLIND1 (setting [5]) and on CDK6-CYCLIND3 (setting [6]) was over 30 µM throughout.
In the case of `CN1CCN(c2ccc(Nc3ncc4c(n3)N(C3CCCC3)C3(CCCN(C)C3=O)C4)cc2)CC1` (stereo not drawn) [Compound C7, 7′-cyclopentyl-1-methyl-2′-((4-(4-methylpiperazin-1-yl)phenyl)amino)-5′,7′-dihydrospiro[piperidine-3,6′-pyrrolo[2,3-d]pyrimidin]-2-one], the IC50 on CDK4-CYCLIND1 (setting [5]) and on CDK6-CYCLIND3 (setting [6]) was over 30 µM each time.
Turning to `CN1CCCC2(Cc3cnc(Nc4ccc(N5CCNCC5)cc4)nc3N2C2CCCC2)C1=O` (stereo not drawn) [Compound C8, 7′-cyclopentyl-1-methyl-2′-((4-(piperazin-1-yl)phenyl)amino)-5′,7′-dihydrospiro[piperidine-3,6′-pyrrolo[2,3-d]pyrimidin]-2-one], the concentration for half-maximal inhibition (IC50) against CDK4-CYCLIND1 (setting [5]) and on CDK6-CYCLIND3 (setting [6]) was over 30 µM in each case.
`CC(C)N1CCN(c2ccc(Nc3ncc4c(n3)N(C3CCCC3)C3(CCCN(C)C3=O)C4)nc2)CC1` (stereo not drawn) [Compound C9, 7′-cyclopentyl-2′-((5-(4-isopropylpiperazin-1-yl)pyridin-2-yl)amino)-1-methyl-5′,7′-dihydrospiro[piperidine-3,6′-pyrrolo[2,3-d]pyrimidin]-2-one]: the half-inhibitory concentration (IC50) on CDK4-CYCLIND1 (setting [5]) and at CDK6-CYCLIND3 (setting [6]) was over 30 µM each time.
As to `CN1CCCC2(Cc3cnc(Nc4ccc(OCCN5CCCC5)cn4)nc3N2C2CCCC2)C1=O` (stereo not drawn) [Compound C10, 7′-cyclopentyl-1-methyl-2′-((5-(2-(pyrrolidin-1-yl)ethoxy)pyridin-2-yl)amino)-5′,7′-dihydrospiro[piperidine-3,6′-pyrrolo[2,3-d]pyrimidin]-2-one], the IC50 at CDK4-CYCLIND1 (setting [5]) and at CDK6-CYCLIND3 (setting [6]) was over 30 µM in each case.
`CN1CCCC2(Cc3cnc(Nc4ccc(OCCN5CCCCC5)cn4)nc3N2C2CCCC2)C1=O` (stereo not drawn) [Compound C11, 7′-cyclopentyl-1-methyl-2′-((5-(2-(piperidin-1-yl)ethoxy)pyridin-2-yl)amino)-5′,7′-dihydrospiro[piperidine-3,6′-pyrrolo[2,3-d]pyrimidin]-2-one]: the IC50 against CDK4-CYCLIND1 (setting [5]) and at CDK6-CYCLIND3 (setting [6]) was over 30 µM in each case.
With `COc1ccc(CN2CCC3(Cc4cnc(Nc5ccc(N6CCN(C)CC6)cc5)nc4N3C3CCCC3)C2=O)cc1` (stereo not drawn) [Compound C12, 7′-cyclopentyl-1-(4-methoxybenzyl)-2′-((4-(4-methylpiperazin-1-yl)phenyl)amino)-5′,7′-dihydrospiro[pyrrolidine-3,6′-pyrrolo[2,3-d]pyrimidin]-2-one], the values for the half-inhibitory concentration (IC50) against CDK4-CYCLIND1 (setting [5]) and on CDK6-CYCLIND3 (setting [6]) were 1.96 µM and over 30 µM, respectively.
The corresponding values for `CN1CCN(c2cnc(Nc3ncc4c(n3)N(C3CCCC3)C3(CCN(C)C3=O)C4)cc2C(F)(F)F)CC1` (stereo not drawn) [Compound C13, 7′-cyclopentyl-1-methyl-2′-((5-(4-methylpiperazin-1-yl)-4-(trifluoromethyl)pyridin-2-yl)amino)-5′,7′-dihydrospiro[pyrrolidine-3,6′-pyrrolo[2,3-d]pyrimidin]-2-one] are over 30 µM and over 30 µM.
For `CN1CCCC2(Cc3cnc(Nc4cc(C(F)(F)F)c(N5CCNCC5)cn4)nc3N2C2CCCC2)C1=O` (stereo not drawn) [Compound C14, 7′-cyclopentyl-1-methyl-2′-((5-(piperazin-1-yl)-4-(trifluoromethyl)pyridin-2-yl)amino)-5′,7′-dihydrospiro[piperidine-3,6′-pyrrolo[2,3-d]pyrimidin]-2-one], the half-maximal inhibitory concentration (IC50) on CDK4-CYCLIND1 (setting [5]) and at CDK6-CYCLIND3 (setting [6]) was over 30 µM in each case.
For the compound `CN1CCC2(Cc3cnc(Nc4cc(C(F)(F)F)c(N5CCNCC5)cn4)nc3N2C2CCCC2)C1=O` (stereo not drawn) [Compound C15, 7′-cyclopentyl-1-methyl-2′-((5-(piperazin-1-yl)-4-(trifluoromethyl)pyridin-2-yl)amino)-5′,7′-dihydrospiro[pyrrolidine-3,6′-pyrrolo[2,3-d]pyrimidin]-2-one], the IC50 on CDK4-CYCLIND1 (setting [5]) and on CDK6-CYCLIND3 (setting [6]) was over 30 µM throughout.
Consider `COc1ccc(CN2CCC3(Cc4cnc(Nc5cc(C(F)(F)F)c(N6CCNCC6)cn5)nc4N3C3CCCC3)C2=O)cc1` (stereo not drawn) [Compound C16, 7′-cyclopentyl-1-(4-methoxybenzyl)-2′-((5-(piperazin-1-yl)-4-(trifluoromethyl)pyridin-2-yl)amino)-5′,7′-dihydrospiro[pyrrolidine-3,6′-pyrrolo[2,3-d]pyrimidin]-2-one], for which the figures for the IC50 against CDK4-CYCLIND1 (setting [5]) and at CDK6-CYCLIND3 (setting [6]) were 13.1 µM and over 30 µM, respectively.
As to `CN1CCN(c2ccc(Nc3ncc4c(n3)N(C3CCCC3)CC43CCNC3=O)nc2)CC1` (stereo not drawn) [Compound C98, 7′-cyclopentyl-2′-((5-(4-methylpiperazin-1-yl)pyridin-2-yl)amino)-6′,7′-dihydrospiro[pyrrolidine-3,5′-pyrrolo[2,3-d]pyrimidin]-2-one], the IC50 at CDK4-CYCLIND1 (setting [5]) amounted to 57.6 µM.
`O=C1NCCC12C(=O)N(C1CCCC1)c1nc(Nc3ccc(N4CCNCC4)cn3)ncc12` (stereo not drawn) [Compound C99, 7′-cyclopentyl-2′-((5-(piperazin-1-yl)pyridin-2-yl)amino)spiro[pyrrolidine-3,5′-pyrrolo[2,3-d]pyrimidine]-2,6′(7′H)-dione] registered an IC50 on CDK4-CYCLIND1 (setting [5]) of 59.4 µM.
The compound `CC(C)N1CCN(c2ccc(Nc3ncc4c(n3)N(C3CCCC3)C(=O)C43CCNC3=O)cc2F)CC1` (stereo not drawn) [Compound C104, 7′-cyclopentyl-2′-((3-fluoro-4-(4-isopropylpiperazin-1-yl)phenyl)amino)spiro[pyrrolidine-3,5′-pyrrolo[2,3-d]pyrimidine]-2,6′(7′H)-dione] came in with an IC50 against CDK4-CYCLIND1 (setting [5]) of 51 µM.
